Laboratory results published in publication PMC10066365, “Nemacol is a small molecule inhibitor of C. elegans vesicular acetylcholine transporter with anthelmintic potential” (Nature Communications, 2023).
Values joined by “and” are separate entries in the source; they are usually repeats but may differ in a detail not shown here. Equal values may be shown once.

Experiments:
[1] = test system: Pristionchus pacificus; test: Pristionchus pacificus motor disruption dose-response on solid media, 1 h; details: for mean % any phene (coiled, jerky-Unc or paralyzed): Pristionchus pacificus young adults; for mean % any phene (coiled, jerky-Unc or paralyzed) / mean % any phene: mean of three biological replicates; for EC50: Pristionchus pacificus, 1 h, read-out: P. pacificus motor disruption EC50; for mean % any phene: any phenotype (coiled, jerky-Unc or paralyzed) at one hour; for rep 1 atypical locomotion / rep 1 coiled / rep 1 no phene / rep 1 paralyzed / rep 2 atypical locomotion / rep 2 coiled / rep 2 no phene / rep 2 paralyzed / rep 3 atypical locomotion / rep 3 coiled / rep 3 no phene / rep 3 paralyzed: count of 20 animals per trial, one hour
[2] = test system: Dirofilaria immitis L3/L4; test: Dirofilaria immitis L3/L4 motility assay (DiroImager, 72 h); details: Dirofilaria immitis L4
[3] = test system: C. elegans; test: C. elegans motor phenotype scoring on solid media (Punc/jerky-unc, coiled, paralyzed), wild-type young adults; type: in vivo, Caenorhabditis elegans; details: for atypical locomotion (number of animals) / coiled (number of animals) / no phene (number of animals) / paralyzed (number of animals) / any phene: mean % fraction of young adults exhibiting any phenotype (coiled, jerky-Unc or paralyzed): one hour; for atypical locomotion (number of animals) / coiled (number of animals) / no phene (number of animals) / paralyzed (number of animals): young adults, 20 animals per trial, single technical replicate; for any phene: mean % fraction of young adults exhibiting any phenotype (coiled, jerky-Unc or paralyzed): mean of three biological replicates; for EC50: Caenorhabditis elegans, any motor phenotype after 1 h on solid media, ± 95% CI, read-out: C. elegans - motor disruption EC50
[4] = test system: Dirofilaria immitis microfilariae; test: Dirofilaria immitis microfilariae immobility assay (DiroImager, 72 h); details: for % effect (motility), DIROIM MF: Dirofilaria immitis microfilariae; for EC50: Dirofilaria immitis, 72 h, read-out: Dirofilaria immitis filariae EC50
Outline: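 About 250 freshly purified microfilariae of the Missouri isolate per well in supplemented RPMI 1640, exposed to compound for 72 h. Motility scored by automated whole-plate optical imaging; medium with 1% DMSO as negative control.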

O=[N+]([O-])c1ccc(N2CCN(C3CCCC3)CC2)cc1 [Nemacol-61]
mean % any phene (coiled, jerky-Unc or paralyzed) ([1]; conc 3.75, observed at one hour): 12.5% | mean % any phene (coiled, jerky-Unc or paralyzed) ([1]; conc 15, observed at one hour): 9.167% | mean % any phene (coiled, jerky-Unc or paralyzed) ([1]; conc 60, observed at one hour): 88.3333% | EC50 [1]: 31.2 ± 9.6 µM | % effect (motility), DIROIM L4 ([2]; 2 µM): 0% | % effect (motility), DIROIM L4 ([2]; 10 µM): 0% | % effect (motility), DIROIM L4 ([2]; 50 µM): 20% | atypical locomotion (number of animals) ([3]; 3.75uM): 0 and 1 | coiled (number of animals) ([3]; 3.75uM): 0 and 17 and 13 | no phene (number of animals) ([3]; 3.75uM): 20 and 19 and 3 and 7 | paralyzed (number of animals) ([3]; 3.75uM): 0 | any phene: mean % fraction of young adults exhibiting any phenotype (coiled, jerky-Unc or paralyzed) ([3]; 3.75uM): 25.8333% | atypical locomotion (number of animals) ([3]; 15uM): 10 and 13 and 12 and 2 and 4 | coiled (number of animals) ([3]; 15uM): 0 and 1 and 2 and 18 and 16 | no phene (number of animals) ([3]; 15uM): 8 and 7 and 5 and 4 and 0 | paralyzed (number of animals) ([3]; 15uM): 2 and 0 and 4 | any phene: mean % fraction of young adults exhibiting any phenotype (coiled, jerky-Unc or paralyzed) ([3]; 15uM): 80% | atypical locomotion (number of animals) ([3]; 60uM): 0 and 17 and 18 | coiled (number of animals) ([3]; 60uM): 19 and 12 and 13 and 3 and 2 | no phene (number of animals) ([3]; 60uM): 0 | paralyzed (number of animals) ([3]; 60uM): 1 and 8 and 7 and 0 | any phene: mean % fraction of young adults exhibiting any phenotype (coiled, jerky-Unc or paralyzed) ([3]; 60uM): 100% | EC50 [3]: 6.8 ± 4.1 µM | % effect (motility), DIROIM MF ([4]; 0.016 µM): 0% | % effect (motility), DIROIM MF ([4]; 0.08 µM): 0% | % effect (motility), DIROIM MF ([4]; 0.4 µM): 0% | % effect (motility), DIROIM MF ([4]; 2 µM): 0% | % effect (motility), DIROIM MF ([4]; 10 µM): 40% | EC50 [4]: 11 µM

O=[N+]([O-])c1ccc(N2CCN(C3CCCCC3)CC2)cc1 [Nemacol-64]
EC50 [1]: 14.3 µM | mean % any phene ([1]; conc 3.75): 0% | rep 1 atypical locomotion ([1]; conc 3.75): 0 | rep 1 coiled ([1]; conc 3.75): 0 | rep 1 no phene ([1]; conc 3.75): 20 | rep 1 paralyzed ([1]; conc 3.75): 0 | rep 2 atypical locomotion ([1]; conc 3.75): 0 | rep 2 coiled ([1]; conc 3.75): 0 | rep 2 no phene ([1]; conc 3.75): 20 | rep 2 paralyzed ([1]; conc 3.75): 0 | rep 3 atypical locomotion ([1]; conc 3.75): 0 | rep 3 coiled ([1]; conc 3.75): 0 | rep 3 no phene ([1]; conc 3.75): 20 | rep 3 paralyzed ([1]; conc 3.75): 0 | mean % any phene ([1]; conc 15): 70.8333% | rep 1 atypical locomotion ([1]; conc 15): 10 and 14 | rep 1 no phene ([1]; conc 15): 7 and 5 | rep 1 paralyzed ([1]; conc 15): 0 | rep 2 atypical locomotion ([1]; conc 15): 14 and 12 | rep 2 no phene ([1]; conc 15): 5 and 8 | rep 2 paralyzed ([1]; conc 15): 0 | rep 3 atypical locomotion ([1]; conc 15): 15 and 12 | rep 3 coiled ([1]; conc 15): 2 and 1 | rep 3 paralyzed ([1]; conc 15): 0 | mean % any phene ([1]; conc 60): 100% | rep 1 atypical locomotion ([1]; conc 60): 2 and 1 | rep 1 coiled ([1]; conc 60): 8 and 12 | rep 1 no phene ([1]; conc 60): 0 | rep 1 paralyzed ([1]; conc 60): 10 and 7 | rep 2 atypical locomotion ([1]; conc 60): 0 | rep 2 coiled ([1]; conc 60): 9 and 11 | rep 2 no phene ([1]; conc 60): 0 | rep 2 paralyzed ([1]; conc 60): 11 and 9 | rep 3 coiled ([1]; conc 60): 10 and 11 | rep 3 no phene ([1]; conc 60): 0 | rep 3 paralyzed ([1]; conc 60): 7 and 8 | % effect (motility), DIROIM L4 ([2]; 2 µM): 0% | % effect (motility), DIROIM L4 ([2]; 10 µM): 0% | % effect (motility), DIROIM L4 ([2]; 50 µM): 100% | atypical locomotion (number of animals) ([3]; 3.75uM): 18 and 13 and 2 and 10 and 6 | coiled (number of animals) ([3]; 3.75uM): 2 and 5 and 16 and 1 and 3 | no phene (number of animals) ([3]; 3.75uM): 0 and 2 and 1 and 8 and 11 | paralyzed (number of animals) ([3]; 3.75uM): 0 and 2 and 1 | any phene: mean % fraction of young adults exhibiting any phenotype (coiled, jerky-Unc or paralyzed) ([3]; 3.75uM): 81.6667% | atypical locomotion (number of animals) ([3]; 15uM): 11 and 10 and 4 and 3 and 16 and 14 | coiled (number of animals) ([3]; 15uM): 9 and 8 and 15 and 14 and 3 and 2 | no phene (number of animals) ([3]; 15uM): 0 and 2 | paralyzed (number of animals) ([3]; 15uM): 0 and 2 and 1 and 3 | any phene: mean % fraction of young adults exhibiting any phenotype (coiled, jerky-Unc or paralyzed) ([3]; 15uM): 96.746% | atypical locomotion (number of animals) ([3]; 60uM): 3 and 2 and 8 and 1 and 0 | coiled (number of animals) ([3]; 60uM): 14 and 16 and 3 and 0 and 7 and 5 | no phene (number of animals) ([3]; 60uM): 0 | paralyzed (number of animals) ([3]; 60uM): 3 and 2 and 14 and 12 and 15 | any phene: mean % fraction of young adults exhibiting any phenotype (coiled, jerky-Unc or paralyzed) ([3]; 60uM): 100% | EC50 [3]: 1.6 ± 2.8 µM | % effect (motility), DIROIM MF ([4]; 0.016 µM): 0% | % effect (motility), DIROIM MF ([4]; 0.08 µM): 0% | % effect (motility), DIROIM MF ([4]; 0.4 µM): 0% | % effect (motility), DIROIM MF ([4]; 2 µM): 0% | % effect (motility), DIROIM MF ([4]; 10 µM): 40% | EC50 [4]: 11 µM
